# According to ChEMBL document CHEMBL2440066, “Acidic biphenyl derivatives: synthesis and biological activity of a new series of potent 5-HT(4) receptor antagonists” (Bioorg Med Chem, 2013):
# What was measured:
# [1] = target: T1, Type-1 angiotensin II receptor (Homo sapiens, UniProt P30556); assay: Displacement of [tyrosyl-3,5-3H]angiotensin-2 from AT1 receptor (unknown origin) expressed in QBI-HEK293A cells after 2 hrs; format: cell-based, HEK293-A
# T1 sequence (P30556 whole entry): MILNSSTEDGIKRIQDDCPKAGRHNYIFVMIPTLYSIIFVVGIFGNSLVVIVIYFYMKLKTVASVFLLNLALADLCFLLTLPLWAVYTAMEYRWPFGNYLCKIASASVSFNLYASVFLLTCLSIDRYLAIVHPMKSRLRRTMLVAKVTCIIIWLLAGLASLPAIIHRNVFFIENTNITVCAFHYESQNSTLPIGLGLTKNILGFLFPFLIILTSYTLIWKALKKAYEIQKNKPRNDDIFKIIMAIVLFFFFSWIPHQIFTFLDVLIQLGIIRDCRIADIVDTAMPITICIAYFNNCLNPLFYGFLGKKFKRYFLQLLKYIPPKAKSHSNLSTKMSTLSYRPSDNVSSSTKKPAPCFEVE
# [2] = target: T2, 5-hydroxytryptamine receptor 4 (Homo sapiens, UniProt Q13639); assay: Displacement of [3H]GR113808 from human 5HT4B receptor expressed in HEK293 cells; format: cell-based
# T2 sequence (Q13639 whole entry): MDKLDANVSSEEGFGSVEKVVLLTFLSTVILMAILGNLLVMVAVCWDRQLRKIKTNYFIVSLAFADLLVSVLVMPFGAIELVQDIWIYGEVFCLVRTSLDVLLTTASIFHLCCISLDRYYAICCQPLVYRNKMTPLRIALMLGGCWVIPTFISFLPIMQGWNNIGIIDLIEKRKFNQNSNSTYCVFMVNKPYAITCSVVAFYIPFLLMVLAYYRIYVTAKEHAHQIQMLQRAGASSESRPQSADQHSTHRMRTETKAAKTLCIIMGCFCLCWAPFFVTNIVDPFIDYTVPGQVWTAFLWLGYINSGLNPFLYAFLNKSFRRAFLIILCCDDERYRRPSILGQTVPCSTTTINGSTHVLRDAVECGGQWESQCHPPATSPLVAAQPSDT
# [3] = target: T2, 5-hydroxytryptamine receptor 4; assay: Displacement of [125I]SB207710 from human recombinant 5-HT4 receptor
# [4] = target: 5-hydroxytryptamine receptor 4 (Cavia porcellus, UniProt O70528); assay: Displacement of [125I]SB207710 from 5-HT4 receptor in guinea pig brain membranes; format: cell membranes, Membrane
# Chain of 5-hydroxytryptamine receptor 4 (Cavia porcellus, UniProt O70528) (O70528 whole entry): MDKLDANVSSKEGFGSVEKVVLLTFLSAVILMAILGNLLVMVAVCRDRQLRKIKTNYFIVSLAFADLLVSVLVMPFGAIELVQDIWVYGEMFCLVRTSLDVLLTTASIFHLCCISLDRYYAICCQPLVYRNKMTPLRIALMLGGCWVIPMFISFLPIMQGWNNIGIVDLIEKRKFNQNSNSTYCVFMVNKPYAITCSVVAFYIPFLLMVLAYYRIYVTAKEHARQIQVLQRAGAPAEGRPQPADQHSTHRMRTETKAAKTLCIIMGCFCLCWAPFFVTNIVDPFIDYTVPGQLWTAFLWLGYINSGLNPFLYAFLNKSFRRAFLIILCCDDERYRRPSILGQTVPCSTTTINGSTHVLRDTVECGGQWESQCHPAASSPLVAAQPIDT
# [5] = Cmax in Sprague-Dawley rat at 10 mg/kg, po; format: ADME, organism-based; design: dose 10 mg/kg, route oral; settings: in vivo
# [6] = Octanol-buffer partition coefficient, log D of the compound at pH 7.4; format: physicochemical
# Rattus norvegicus [7] = assay: Tmax in Sprague-Dawley rat assessed as 4'-((4-(((3,4-Dihydro-2H-[1,3]oxazino[3,2-a]indole-10-carbonyl)oxy)methyl)piperidin-1-yl)methyl)[1,1'-biphenyl]-2-carboxylic acid level at 10 mg/kg, po; format: ADME, organism-based; design: dose 10 mg/kg, route oral; settings: in vivo
# [8] = AUC (0 to 6 hrs) in Sprague-Dawley rat at 10 mg/kg, po; format: ADME, organism-based; design: time < 6 hr, dose 10 mg/kg, route oral; settings: plasma
# Rattus norvegicus [9] = assay: AUC (0 to infinity) in Sprague-Dawley rat assessed as 4'-((4-(((3,4-Dihydro-2H-[1,3]oxazino[3,2-a]indole-10-carbonyl)oxy)methyl)piperidin-1-yl)methyl)[1,1'-biphenyl]-2-carboxylic acid level at 10 mg/kg, po; format: ADME, organism-based, Plasma; design: time infinity, dose 10 mg/kg, route oral; settings: in vivo
# [10] = target: Voltage-gated inwardly rectifying potassium channel KCNH2 (Homo sapiens, UniProt Q12809); assay: Inhibition of human ERG expressed in HEK293 cells by patch-clamp technique; format: cell-based
# Chain of Voltage-gated inwardly rectifying potassium channel KCNH2 (Q12809 whole entry): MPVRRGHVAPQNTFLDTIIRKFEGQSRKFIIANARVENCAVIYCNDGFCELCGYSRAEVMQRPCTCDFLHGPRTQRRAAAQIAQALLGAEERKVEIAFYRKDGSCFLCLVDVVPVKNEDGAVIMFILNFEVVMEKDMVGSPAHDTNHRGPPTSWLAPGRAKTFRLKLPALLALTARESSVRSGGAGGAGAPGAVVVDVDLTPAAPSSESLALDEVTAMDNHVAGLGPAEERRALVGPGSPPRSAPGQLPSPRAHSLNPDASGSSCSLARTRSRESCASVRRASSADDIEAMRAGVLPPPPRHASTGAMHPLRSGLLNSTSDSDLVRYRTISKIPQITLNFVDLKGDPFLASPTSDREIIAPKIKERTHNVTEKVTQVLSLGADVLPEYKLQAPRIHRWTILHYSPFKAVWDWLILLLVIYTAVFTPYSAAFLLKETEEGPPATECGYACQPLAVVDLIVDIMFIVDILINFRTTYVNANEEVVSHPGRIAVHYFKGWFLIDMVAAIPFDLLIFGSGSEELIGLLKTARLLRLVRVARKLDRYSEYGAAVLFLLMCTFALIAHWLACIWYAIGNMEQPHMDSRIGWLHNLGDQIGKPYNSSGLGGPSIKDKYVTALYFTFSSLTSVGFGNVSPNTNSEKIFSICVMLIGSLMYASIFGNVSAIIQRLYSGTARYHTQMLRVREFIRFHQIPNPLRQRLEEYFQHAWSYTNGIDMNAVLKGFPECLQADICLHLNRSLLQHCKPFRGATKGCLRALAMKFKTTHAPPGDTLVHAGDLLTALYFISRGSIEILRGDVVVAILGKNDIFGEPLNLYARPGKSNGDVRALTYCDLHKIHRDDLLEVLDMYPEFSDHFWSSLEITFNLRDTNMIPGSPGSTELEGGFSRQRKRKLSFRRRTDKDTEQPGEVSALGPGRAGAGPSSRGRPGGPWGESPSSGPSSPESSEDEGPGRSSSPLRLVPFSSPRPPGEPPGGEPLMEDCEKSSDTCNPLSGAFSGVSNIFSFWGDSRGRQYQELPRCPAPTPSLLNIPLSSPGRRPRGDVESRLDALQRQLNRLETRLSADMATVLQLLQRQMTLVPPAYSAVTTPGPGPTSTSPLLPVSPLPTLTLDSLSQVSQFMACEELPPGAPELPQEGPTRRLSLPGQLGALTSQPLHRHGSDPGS
# hERG (KCNH2) [11] = target: T3, hERG (KCNH2) (Homo sapiens, UniProt Q12809); assay: Inhibition of human ERG expressed in HEK293 cells at 10 uM by patch-clamp technique; format: cell-based; settings: HEK293 cells that express hERG
# T3 sequence (Q12809 whole entry): as above
# [12] = target: T2, 5-hydroxytryptamine receptor 4; assay: Antagonist activity at human 5HT4B receptor expressed in HEK293 cells assessed as inhibition of 5HT-stimulated adenylyl cyclase activity; format: functional, cell-based
# 3T3-L1 = assay: Cytotoxicity against mouse 3T3L1 cells assessed as cell death at 5 ug/ml after 72 hrs by neutral red assay; format: cell-based; settings: 3t3-l1, 72 h
# [13] = Apparent permeability of the compound in human Caco2 cells at 1 uM; format: ADME, cell-based; settings: Caco-2
# Rattus norvegicus [14] = assay: Elimination half life in Sprague-Dawley rat assessed as 4'-((4-(((3,4-Dihydro-2H-[1,3]oxazino[3,2-a]indole-10-carbonyl)oxy)methyl)piperidin-1-yl)methyl)[1,1'-biphenyl]-2-carboxylic acid level at 10 mg/kg, po; format: ADME, organism-based; design: dose 10 mg/kg, route oral; settings: in vivo
# [15] = Tmax in Sprague-Dawley rat at 10 mg/kg, po; format: ADME, organism-based; design: dose 10 mg/kg, route oral; settings: in vivo
# Rattus norvegicus [16] = assay: Cmax in Sprague-Dawley rat assessed as 4'-((4-(((3,4-Dihydro-2H-[1,3]oxazino[3,2-a]indole-10-carbonyl)oxy)methyl)piperidin-1-yl)methyl)[1,1'-biphenyl]-2-carboxylic acid level at 10 mg/kg, po; format: ADME, organism-based; design: dose 10 mg/kg, route oral; settings: in vivo
# Rattus norvegicus [17] = assay: AUC (0 to 6 hrs) in Sprague-Dawley rat assessed as 4'-((4-(((3,4-Dihydro-2H-[1,3]oxazino[3,2-a]indole-10-carbonyl)oxy)methyl)piperidin-1-yl)methyl)[1,1'-biphenyl]-2-carboxylic acid level at 10 mg/kg, po; format: ADME, organism-based, Plasma; design: time < 6 hr, dose 10 mg/kg, route oral; settings: in vivo
# [18] = target: 5-hydroxytryptamine receptor 4 (Rattus norvegicus) (UniProt Q62758); assay: Antagonist activity at 5-HT4 receptor in rat esophagus assessed as inhibition of 5-HT-induced relaxation; format: tissue-based
# Chain of 5-hydroxytryptamine receptor 4 (Rattus norvegicus) (Q62758 whole entry): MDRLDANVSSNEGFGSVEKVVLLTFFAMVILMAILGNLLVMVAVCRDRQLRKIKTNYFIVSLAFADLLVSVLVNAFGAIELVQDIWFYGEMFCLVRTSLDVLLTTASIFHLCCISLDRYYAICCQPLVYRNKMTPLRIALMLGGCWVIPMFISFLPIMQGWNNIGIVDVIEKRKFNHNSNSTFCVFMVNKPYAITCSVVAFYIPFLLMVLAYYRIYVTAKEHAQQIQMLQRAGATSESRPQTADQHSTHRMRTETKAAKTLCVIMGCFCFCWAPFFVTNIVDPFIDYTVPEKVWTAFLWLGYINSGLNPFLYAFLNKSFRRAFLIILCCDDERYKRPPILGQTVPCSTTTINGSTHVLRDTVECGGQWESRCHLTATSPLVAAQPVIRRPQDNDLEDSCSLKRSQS
# hERG (KCNH2) [19] = target: T3, hERG (KCNH2); assay: Inhibition of human ERG expressed in HEK293 cells at 100 uM by patch-clamp technique; format: cell-based; settings: HEK293 cells that express hERG
# [20] = target: 5-hydroxytryptamine receptor 4 (Rattus norvegicus) (UniProt Q62758); assay: Antagonist activity at 5-HT4 receptor in rat carbachol-contracted esophagus muscularis mucosae assessed as inhibition of 5-HT-induced relaxation
# hERG (KCNH2) [21] = target: T3, hERG (KCNH2); assay: Inhibition of human ERG expressed in HEK293 cells at 50 uM by patch-clamp technique; format: cell-based; settings: HEK293 cells that express hERG
structure (smiles),measurement,setting,value
COC(=O)c1ccccc1-c1ccc(CN2CCC(CNC(=O)c3c4n(c5ccccc35)CCCO4)CC2)cc1,Ki,[1],> 10000 nM
same,Ki,[2],0.0631 nM
CCCCN1CCC(CNC(=O)c2c3n(c4cc(O)ccc24)CCCO3)CC1,Ki,[3],794 nM
same,Ki,[4],794 nM
COC(=O)c1ccccc1-c1ccc(CN2CCC(COC(=O)c3c4n(c5ccccc35)CCCO4)CC2)cc1.CS(=O)(=O)O,Cmax,[5],244 ng/mL
same,Ki,[1],> 10000 nM
same,logD,[6],4.5
same,Tmax,Rattus norvegicus [7],1 h
same,AUC(0-t) at 6 h,[8],1110 ng·h/mL
same,AUC,Rattus norvegicus [9],542 ng·h/mL
same,IC50,[10],131 nM
same,inhibition at 10 µM,hERG (KCNH2) [11],2%
same,pKb,[12],10.6
same,Activity,3T3-L1,75%
same,Papp at 1 µM,[13],25 ×10⁻⁶ cm/s
same,Ki,[2],0.00126 nM
same,beta t1/2,Rattus norvegicus [14],15.6 h
same,Tmax,[15],2 h
same,Cmax,Rattus norvegicus [16],30 ng/mL
same,AUC,Rattus norvegicus [17],114 ng·h/mL
Cc1noc(-c2ccc(F)cc2NC(=O)OCC2CCN(CCNS(C)(=O)=O)CC2)n1,pKb,[18],8.9
Cn1cc(C(=O)OCC2CCN(CCNS(C)(=O)=O)CC2)c2ccccc21,pKb,[12],8.7
CC(C)(C)C(=O)OCn1nnc(-c2ccccc2-c2ccc(CN3CCC(COC(=O)c4c5n(c6ccccc46)CCCO5)CC3)cc2)n1.CS(=O)(=O)O,logD,[6],4.3
same,Papp at 1 µM,[13],5.1 ×10⁻⁶ cm/s
CS(=O)(=O)O.O=C(O)c1ccccc1-c1ccc(CN2CCC(COC(=O)c3c4n(c5ccccc35)CCCO4)CC2)cc1,Ki,[1],1580 nM
same,logD,[6],1.3
same,inhibition at 100 µM,hERG (KCNH2) [19],31%
same,IC50,[10],47500 nM
same,pKb,[12],9.8
same,Activity,3T3-L1,14%
same,Papp at 1 µM,[13],0.8 ×10⁻⁶ cm/s
same,Ki,[2],0.0501 nM
CC(C)NCC(O)c1ccc(NS(C)(=O)=O)cc1 (stereo unspecified) [SOTALOL],Papp at 1 µM,[13],0.8 ×10⁻⁶ cm/s
CCCCN1CCC(CNC(=O)c2c3n(c4ccccc24)CCCO3)CC1 [PIBOSEROD],Ki,[1],> 10000 nM
same,pKb,[12],9.5
same,Ki,[3],1.58 nM
same,Ki,[4],1.58 nM
CC(=O)OCOC(=O)c1ccccc1-c1ccc(CN2CCC(COC(=O)c3c4n(c5ccccc35)CCCO4)CC2)cc1.CS(=O)(=O)O,logD,[6],4.5
same,Papp at 1 µM,[13],1.4 ×10⁻⁶ cm/s
CS(=O)(=O)NCCN1CCC(CCC(=O)c2cc(Cl)c(N)c3c2OCCO3)CC1,pKb,[20],9.9
CS(=O)(=O)O.Cc1oc(=O)oc1COC(=O)c1ccccc1-c1ccc(CN2CCC(COC(=O)c3c4n(c5ccccc35)CCCO4)CC2)cc1,logD,[6],4.6
same,Papp at 1 µM,[13],16.1 ×10⁻⁶ cm/s
CC(O)CCN1CCC(CNC(=O)c2c3n(c4ccccc24)CCCO3)CC1 (stereo unspecified),Ki,[3],0.794 nM
same,Ki,[4],0.794 nM
O=C(OCC1CCN(Cc2ccc(-c3ccccc3-c3nn[nH]n3)cc2)CC1)c1c2n(c3ccccc13)CCCO2,Ki,[1],> 10000 nM
same,logD,[6],1.6
same,IC50,[10],27500 nM
same,Activity,3T3-L1,0%
same,Papp at 1 µM,[13],2.9 ×10⁻⁶ cm/s
same,inhibition at 50 µM,hERG (KCNH2) [21],35%
same,Ki,[2],2.51 nM
Cc1noc(-c2ccccc2NC(=O)OCC2CCN(CCNS(C)(=O)=O)CC2)n1,pKb,[18],10.8
O=C(NCC1CCNCC1)c1c2n(c3ccccc13)CCCO2,Ki,[3],63.1 nM
same,Ki,[4],63.1 nM
CC(C)(C)C(=O)OCOC(=O)c1ccccc1-c1ccc(CN2CCC(COC(=O)c3c4n(c5ccccc35)CCCO4)CC2)cc1.CS(=O)(=O)O,logD,[6],4.7
same,Papp at 1 µM,[13],9 ×10⁻⁶ cm/s
CC(C)CCOC(=O)c1ccccc1-c1ccc(CN2CCC(COC(=O)c3c4n(c5ccccc35)CCCO4)CC2)cc1.CS(=O)(=O)O,logD,[6],4.9
same,Papp at 1 µM,[13],5.4 ×10⁻⁶ cm/s
O=C(OCC1CCN(Cc2ccc(-c3ccccc3-c3nnn[nH]3)cc2)CC1)c1c2n(c3ccccc13)CCCO2,pKb,[12],10.6
CCCCN1CCC(CCC(=O)c2cc(Cl)c(N)c3c2OCCO3)CC1,pKb,[20],9.9
CCCCOC(=O)c1ccccc1-c1ccc(CN2CCC(COC(=O)c3c4n(c5ccccc35)CCCO4)CC2)cc1.CS(=O)(=O)O,Cmax,[5],80 ng/mL
same,logD,[6],4.9
same,Tmax,Rattus norvegicus [7],2 h
same,AUC(0-t) at 6 h,[8],313 ng·h/mL
same,AUC,Rattus norvegicus [9],124 ng·h/mL
same,Papp at 1 µM,[13],13.9 ×10⁻⁶ cm/s
same,beta t1/2,Rattus norvegicus [14],9.92 h
same,Tmax,[15],6 h
same,Cmax,Rattus norvegicus [16],10 ng/mL
same,AUC,Rattus norvegicus [17],39 ng·h/mL
COc1ccc(CCCN2CCC(CCC(=O)c3cc(Cl)c(N)c4c3OCCO4)CC2)cc1,pKb,[20],10.6
Cl.O=C(OCc1ccccc1)c1ccccc1-c1ccc(CN2CCC(COC(=O)c3c4n(c5ccccc35)CCCO4)CC2)cc1,logD,[6],5.1
same,Papp at 1 µM,[13],1.1 ×10⁻⁶ cm/s
Nc1c(Cl)cc(C(=O)CCC2CCN(CCCc3ccccc3)CC2)c2c1OCCO2,pKb,[20],9.6
O=C(O)c1ccccc1-c1ccc(CN2CCC(CNC(=O)c3c4n(c5ccccc35)CCCO4)CC2)cc1,Ki,[1],> 10000 nM
same,Ki,[2],0.631 nM
O=C(NCC1CCN(Cc2ccc(-c3ccccc3-c3nnn[nH]3)cc2)CC1)c1c2n(c3ccccc13)CCCO2,Ki,[1],> 10000 nM
same,pKb,[12],9.7
same,Activity,3T3-L1,0%
same,Ki,[2],3.98 nM
COc1ccc(NC(=O)OCC2CCN(CCNS(C)(=O)=O)CC2)c(-c2nc(C)no2)c1,pKb,[18],8.1
